How the values were obtained:
Assay in all cases: relative viability (nuclei count vs DMSO), 5 days (fraction); higher = more cells survive
[1] = compound: COC1=CC=C(C=C1)CN2C=CC3=C2C=C(C=C3)C(=O)NO + COc1cc2c(Oc3ccc(NC(=O)C4(C(=O)Nc5ccc(F)cc5)CC4)cc3F)ccnc2cc1OCCCN1CCOCC1 [Foretinib] (partner 0.25 µM)
Method in brief: (§1)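 Lung cancer cell lines in 1536-well plates were dosed by pin tool the day after seeding, either with one drug alone or with a fixed anchor-drug dose plus five library-drug doses (not always all listed) in √10 steps. After 5 days, cells were fixed and their nuclei stained in one step (final 0.05% Triton X-100, 1% formaldehyde, 1 ug/ml Hoechst), then counted on 4× images. Relative viability is the nuclei count in treated wells divided by that in vehicle wells. Values are medians of duplicate plates.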

[2] = compound: COC1=CC=C(C=C1)CN2C=CC3=C2C=C(C=C3)C(=O)NO + CS(=O)(=O)N1CCN(Cc2cc3nc(-c4cccc5[nH]ncc45)nc(N4CCOCC4)c3s2)CC1 [Pictilisib] (partner 1 µM)
Method in brief: as §1

Veliparib + Tozasertib = compound: C[C@]1(c2nc3c(C(N)=O)cccc3[nH]2)CCCN1 [Veliparib] + Cc1cc(Nc2cc(N3CCN(C)CC3)nc(Sc3ccc(NC(=O)C4CC4)cc3)n2)n[nH]1 [Tozasertib] (partner 0.1 µM)
Method in brief: as §1

Veliparib + Olaparib = compound: C[C@]1(c2nc3c(C(N)=O)cccc3[nH]2)CCCN1 [Veliparib] + O=C(c1cc(Cc2n[nH]c(=O)c3ccccc23)ccc1F)N1CCN(C(=O)C2CC2)CC1 [Olaparib] (partner 8 µM)
Method in brief: as §1

Cell Line | relative viability ([1]; first compound 0.08 µM) | relative viability ([1]; first compound 0.253 µM) | relative viability ([1]; first compound 0.8 µM) | relative viability ([1]; first compound 2.53 µM) | relative viability ([1]; first compound 8 µM) | relative viability ([2]; first compound 0.08 µM) | relative viability ([2]; first compound 0.253 µM) | relative viability ([2]; first compound 0.8 µM) | relative viability ([2]; first compound 2.53 µM) | relative viability ([2]; first compound 8 µM) | relative viability (Veliparib + Tozasertib; first compound 0.02 µM) | relative viability (Veliparib + Tozasertib; first compound 0.06325 µM) | relative viability (Veliparib + Tozasertib; first compound 0.2 µM) | relative viability (Veliparib + Tozasertib; first compound 0.6325 µM) | relative viability (Veliparib + Tozasertib; first compound 2 µM) | relative viability (Veliparib + Olaparib; first compound 0.02 µM) | relative viability (Veliparib + Olaparib; first compound 0.06325 µM) | relative viability (Veliparib + Olaparib; first compound 0.2 µM) | relative viability (Veliparib + Olaparib; first compound 0.6325 µM) | relative viability (Veliparib + Olaparib; first compound 2 µM)
NCI-H650 | 1.04 | 1.01 | 1.04 | 1.02 | 0.936 | 0.901 | 0.895 | 0.856 | 0.861 | 0.829 | 0.809 | 0.683 | 0.773 | 0.686 | 0.799 | 0.355 | 0.329 | 0.383 | 0.431 | 0.378
NCI-H2228 | – | 1 | 0.933 | 0.857 | 0.609 | 0.375 | 0.326 | 0.536 | 0.46 | 0.251 | 0.31 | 0.318 | 0.352 | 0.176 | 0.353 | 0.807 | 0.58 | 0.913 | 0.541 | 0.754
PC-14 | 0.701 | 0.917 | 0.991 | 1.04 | 0.996 | 0.388 | 0.629 | 0.766 | 0.688 | 0.699 | 0.638 | 0.584 | 0.562 | 0.526 | 0.674 | 0.342 | 0.326 | 0.368 | 0.38 | 0.204
RERF-LC-KJ | 0.639 | 0.862 | 0.915 | 0.947 | 0.917 | 0.468 | 0.571 | 0.511 | 0.608 | 0.472 | 0.515 | 0.5 | 0.521 | 0.481 | 0.485 | 1.03 | 0.795 | 0.814 | 0.881 | 0.85
LK-2 | – | 1.66 | 1.4 | 0.949 | 1.03 | – | 0.524 | 0.598 | 0.507 | 0.488 | – | 0.152 | 0.159 | 0.221 | 0.18 | 0.696 | 0.629 | 0.659 | 0.757 | 0.85
NCI-H1793 | – | 0.732 | 0.63 | 0.656 | 0.63 | 0.17 | 0.239 | 0.395 | 0.267 | 0.335 | 0.364 | 0.349 | 0.391 | 0.371 | 0.41 | 0.954 | 0.976 | 0.827 | 0.851 | 1.01
NCI-H1944 | – | 0.874 | 0.853 | 0.887 | 0.912 | – | 0.37 | 0.317 | 0.357 | 0.322 | 0.261 | 0.253 | 0.252 | 0.251 | 0.249 | 0.433 | 0.437 | 0.418 | 0.388 | 0.385
NCI-H1734 | – | 0.919 | 0.852 | 0.897 | 0.863 | – | 0.487 | 0.437 | 0.384 | 0.416 | 0.309 | 0.262 | 0.284 | 0.268 | 0.269 | – | 0.577 | 0.666 | 0.567 | 0.691
H3255 | 0.92 | 0.702 | 0.821 | 0.89 | 0.398 | 0.428 | 0.411 | 0.416 | 0.436 | 0.467 | 0.624 | 0.664 | 0.704 | 0.612 | 0.538 | 0.544 | 0.61 | 0.534 | 0.567 | 0.553
